Results taken from US11013717B1, “Methods and compositions for treating cancer using SERCA pump inhibitors” (priority 2018, dated 2021).

Test system: CD8+ T-cells isolated from human PBMCs
Assay: Activation of anti-CD3/anti-CD28 stimulated CD8+ T-cells treated with SERCA inhibitors, cytokine release (IFNγ, TNFα) by intracellular staining flow cytometry
Type: cell-based
Conditions: for Fold Change % IFNγ+ Cells (Normalized to Bead Stimulated Only): overnight, anti-CD3/anti-CD28 bead stimulated human CD8+ T-cells; for T cell activation / interferon gamma (IFNγ) production / secretion by CD8+ T cells: human CD8+ T-cells stimulated with anti-CD3/anti-CD28 beads, overnight incubation, thapsigargin 1.5 μM, cyclopiazonic acid 3 μM, NS-1619 30-100 μM; for T cell activation: activation measured by cytokine release
Method: CD8+ T-cells were isolated from human PBMCs using negative magnetic bead selection (Stemcell Technologies). Cells stimulated with anti-CD3/anti-CD28 beads (Life Technologies) and were treated with different SERCA inhibitors: thapsigargin (1.5 μM), cyclopiazonic acid (3 μM), and NS-1619 (30-100 μM). All incubations were done overnight. Subsequent activation was measured by cytokine release using intracellular staining flow cytometry of IFNγ and TNFα, using fluorescently labeled antibodies (Biolegend).

## O=c1[nH]c2cc(C(F)(F)F)ccc2n1-c1cc(C(F)(F)F)ccc1O [NS-1619]
30 μM
  Fold Change % IFNγ+ Cells (Normalized to Bead Stimulated Only): 1.1 fold
100 μM
  Fold Change % IFNγ+ Cells (Normalized to Bead Stimulated Only): 2.68 fold
  T cell activation: led to T cell activation
  interferon gamma (IFNγ) production / secretion by CD8+ T cells: increased

## CC(=O)C1=C(O)[C@@H]2[C@H]3c4c[nH]c5cccc(c45)C[C@H]3C(C)(C)N2C1=O [cyclopiazonic acid]
3 μM
  Fold Change % IFNγ+ Cells (Normalized to Bead Stimulated Only): 2.38 fold

## C/C=C(/C)C(=O)O[C@H]1C(C)=C2[C@H]([C@@H]1OC(=O)CCCCCCC)[C@@](C)(OC(C)=O)C[C@H](OC(=O)CCC)[C@@]1(O)[C@H]2OC(=O)[C@@]1(C)O [thapsigargin]
1.5 μM
  Fold Change % IFNγ+ Cells (Normalized to Bead Stimulated Only): 2.08 fold
  T cell activation: led to T cell activation
  interferon gamma (IFNγ) production / secretion by CD8+ T cells: increased
